The values that follow are results of earlier work, collected in patent publication US11813363B1, “Concentrated nutritional or supplemental compound for intestinal, gut-brain axis and neurobiological homeostasis through calibrated absorption including neurotransmitter or any equilibrating compound release to treat or mitigate disease and co-morbidities, particularly obesity and malnourishment” (priority 2022, dated 2023).

The conditions of the data set: oral ingestion; reddish-orange color of urine.

With `Cl.Nc1ccc(/N=N/c2ccccc2)c(N)n1` [phenazopyridine, phenazopyridine hydrochloride], the “time to visible urine color change after ingestion (earliest)” value was at least 20 min and the “time to visible urine color change after ingestion (latest)” value is “within one hour”.
